Test results from PubChem BioAssay AID1626 (SRMLSC, 2009).

Tested on: M. tuberculosis H37Rv growth inhibition
Assay: M. tuberculosis H37Rv growth inhibitors, H37Rv strain (AID 1626)
Details: for IC90: measured here: IC90 against H37Rv; for CC50: measured here: Vero cell cytotoxicity

Structure (SMILES)	IC90 [µM]	CC50 [µM]	IC50 [µM]
O=C(Nc1nccs1)c1cn(-c2ccccc2)nc1-c1ccccc1	> 100	> 40	–
O=C(Nc1nc(-c2ccccn2)cs1)C12CC3CC(CC(O)(C3)C1)C2	7.8	> 40	3.6
O=C(Oc1ccc(Cl)cc1)c1ccc(COC(=O)c2cnccn2)cc1	9.41	> 40	6.54
CC(NC(=O)Nc1ccc(Br)cc1)C(C)(C)C (centres undefined)	> 100	–	0.42
CCOC(=O)c1ccc(N/C=C/C(=O)c2ccc(OC)c(OC)c2)cc1	> 100	–	3.44
CCCCCc1cc(=O)oc2c(C(CCN3CCCC(C)C3)c3cc(OC)c(OC)c(OC)c3)c(OC)cc(OC)c12 (centres undefined)	9.84	14.5	7.65
CCOC(=O)CSc1nc(N)c(C#N)c(-c2ccc(OCC)cc2)c1C#N	1.32	–	0.472
CCc1ccc(Nc2c([N+](=O)[O-])c(=O)oc3ccccc23)cc1	> 100	> 40	–
CC1CC(C)CN(C(=O)/C=C/c2ccc([N+](=O)[O-])s2)C1 (centres undefined)	13.3	37.4	10.2
O=C(Nc1ncc(Cc2ccccc2Cl)s1)C1=NCCN1	10.3	> 40	3.75
Cc1cc(C)n(C(=O)c2ccc([N+](=O)[O-])cc2[N+](=O)[O-])n1	12.6	–	7.05
Cc1cc(C)c2c(CN3CCN(Cc4ccc5c(c4)OCO5)CC3)cc(=O)oc2c1C	> 100	–	19
Fc1cccc(-c2cc3nc(-c4ccccc4)cc(N4CCC5(CC4)OCCO5)n3n2)c1	> 100	–	–
O=C1Nc2ccccc2C1=Nc1ccc(S(=O)(=O)Nc2nccs2)cc1	11.3	–	4.54
O=C(Nc1nnc(-c2cccnc2)o1)c1cccc(Cl)c1	> 100	33.7	3.27
CC(=O)c1ccc(NC(=O)c2ccc(CNc3c(N4CCOCC4)c(=O)c3=O)cc2)cc1	6.61	–	5.81
COc1c(C)cc(C(=O)C2CCCN(Cc3cccc(C)n3)C2)cc1C (centres undefined)	> 100	> 40	18.6
O=C(Nc1nc2ccccc2n1CCN1CCOCC1)c1ccc(Cl)cc1	> 100	> 40	26.5
O=C1c2ccccc2C(=O)N1CCCCN(C(=O)c1cc([N+](=O)[O-])cc([N+](=O)[O-])c1)c1ccc(Cl)cc1	1.65	–	1.23
COc1ccc(Nc2cc(C)nc(-n3nc(C)cc3C)n2)cc1	> 100	> 40	6.15

Structure (SMILES)	IC90 [µM]	CC50 [µM]	IC50 [µM]
CC1=Nc2ccccc2/C1=C/c1sc(=N)n(-c2nccs2)c1O	< 0.195	14.3	< 0.195
CC(NC(=O)c1ccc(Br)cc1)c1ccc2c(c1)CCCC2 (centres undefined)	> 100	–	15.4
Cc1ccc(S/C=C\C(=O)c2ccccc2)cc1	8.53	–	5.51
N#C/C(=C(/O)CSc1nnc(Cc2cccs2)n1C1CCCCC1)c1nc2ccccc2[nH]1	> 100	–	–
O=C(Nc1nnc(-c2ccc(Cl)cc2)o1)C1CCCCC1	> 100	> 40	3.32
Cc1ccc(N=C/C(C(=O)C(F)(F)F)=C(\O)c2ccco2)cc1Cl	> 100	–	–
COc1ccc(N=C2NN=C(c3c(C)[nH]c4ccccc34)CS2)cc1	> 100	29.6	39
CC(C)(C)c1cc(NCCCn2ccnc2)n2ncc(-c3ccc(Cl)cc3)c2n1	1.43	22.3	0.939
C/C(=C\C(=O)c1ccc(C)o1)Nc1ccc2c(c1)OCO2	> 100	–	–
Cc1c(CNC(=O)c2cnn3c2NC(c2ccc(Br)cc2)CC3C(F)(F)F)cnn1C (centres undefined)	6.49	–	4.09
Cc1ccc(OC(=O)c2sc3ncn(C)c(=O)c3c2C)cc1	1.7	–	1.49
Nc1nc(CN2CCN(C(c3ccccc3)c3ccccc3)CC2)nc(Nc2ccccc2)n1	> 100	> 40	36.4
Cc1nc(NCc2ccc3c(c2)OCO3)c2oc3ccccc3c2n1	21.8	–	7.7
Cc1cc(C)cc(NC(=O)c2ccc([N+](=O)[O-])o2)c1	22.6	9.81	9.59
CCCc1cc(-c2nc(-c3ccc(C)cc3)cs2)ccn1	22.2	> 40	7.61
CCCC(=O)Nc1cccc(-c2nc3ccccc3c(=O)o2)c1	12.1	–	5.72
CCOC(=O)COc1ccc(-c2nnc(-c3ccccc3)o2)cc1	3.76	–	0.409
O=C(CCC(=O)OCc1ccc(C(=O)Oc2ccccc2)cc1)Nc1cccc2ccccc12	10.1	> 40	7.06
Cc1cccc(-c2nsc(SCC(=O)NCC3CCCO3)n2)c1 (centres undefined)	4.2	–	1.19
O=C(Nc1ccc(Cl)cc1)c1cc2c(cc1O)[nH]c1ccccc12	2.29	13.4	1.71

Structure (SMILES)	IC90 [µM]	CC50 [µM]	IC50 [µM]
Clc1ccc(OCCCNCc2ccccc2)c(Br)c1	25.1	> 40	23.2
CN1CCN(c2ccc(C(=O)c3cn(-c4ccc(F)c(Cl)c4)nn3)cc2)CC1	> 100	9.78	3.43
CCn1ccnc1CN1CCCC(C(=O)c2ccc3cc(OC)ccc3c2)C1 (centres undefined)	25.5	> 40	10.9
COc1ccc(NC2=NCC(Cc3ccc(Br)cc3)S2)cc1 (centres undefined)	15.9	> 40	10.2
CCOC(=O)c1ccc(NC(=O)C2C3CCC(C3)C2C(=O)O)cc1 (centres undefined)	> 100	–	–
Nc1ccc2c(c1)Cc1ccccc1-2	> 100	–	18.3
O=S(=O)(c1ccc(Cl)c(Cl)c1)c1snnc1-c1ccccc1	5.42	3.84	2.71
Cc1cc(C)c(C2C3=C(Nc4c2c(C)nn4-c2ccccn2)c2ccccc2C3=O)c(C)c1 (centres undefined)	8.83	> 40	5.63
O=C(c1cc2cc3ccc(Cl)cc3nc2o1)N1CCC2(CC1)OCCO2	7.22	–	3.56
COc1ccc(NCc2n[nH]nc2-c2ccccc2)cc1Cl	> 100	> 40	25.7
O=C(c1coc2ccc(O)cc12)C1CC1	> 100	–	27.5
COc1cccc(Nc2c3c(nc4c(-c5ccccc5)c(C)nn24)CCC3)c1	5.95	> 40	3.4
COc1cc(/C=C/C(=O)c2ccc(F)cc2)cc(OC)c1OC	7.36	21.1	4.93
COc1ccc(NC(=O)CCc2nc(-c3ccc(C)cc3)no2)cc1Cl	> 100	> 40	3.59
CCC(=O)Nc1ccc(-c2nc3ccccc3c(=O)o2)cc1	84	–	18
O=C(Nc1ccccc1Cl)Oc1ccc(-c2ccccc2)cc1	> 100	> 40	59.5
COc1ccc2cc(-c3[nH]ncc3CN3CCCN(c4ccccc4)CC3)ccc2c1	15.4	> 40	9.35
Cn1c(-c2c(N)n(-c3ccccc3)c3nc4ccccc4nc23)nc2ccccc21	> 100	> 40	0.331
COc1cccc(N2CCN(c3cnc4ccccc4n3)CC2)c1	> 100	–	25.3
